Assay [1] relates to human bronchi submucosal glands. The experiment in a line: Airway submucosal gland fluid secretion in human bronchi. The settings on record: 30 μM T16Ainh-A01. The procedure:
FIG. 6A-C. Airway submucosal gland fluid secretion in human bronchi. FIG. 6A. TMEM16A immunohistochemistry in CF (left) and non-CF (right) human bronchi showing apical membrane expression in serous gland epithelial cells (arrows). Scale bar: 20 μm. FIG. 6B. Mucous (fluid) secretion in human bronchi. (top) Images of mucus bubbles formed under oil in response to basolateral application of 300 nM carbachol (CCh) and 20 μM Eact. TMEM16A was inhibited by 30 μM T16Ainh-A01. Individual fluid bubbles marked with arrowheads. Scale bar: 0.5 mm. (bottom) CCh and Eact-induced secretion rates. Where indicated, tissues were pre-treated with T16Ainh-A01 (30 μM). Each point is the average of measurements made from 20 glands (mean±S.E. * P<0.05). FIG. 6C. Summary of human gland fluid secretion rates measured at 20 min after addition of 20 μM Eact, and 30 min after application of 300 nM carbachol (CCh) and 10 μM forskolin (20-66 glands from 3 tracheas and 4 bronchus). In CF-bronchi, 6 glands from one donor were stimulated by Eact. […]
Similar staining was found in non-CF and CF human bronchi. Fluid secretion was measured in individual submucosal glands from the increasing size of mucus (fluid) bubbles in which airway fragments were mounted in a 37° C. perfusion chamber and the mucosal solution was covered with oil.

Assay [2] concerns the target T1, CFTR (Homo sapiens, UniProt P13569).
T1 construct: expressed in transfected cells; host or cells: FRT cells co-expressing a YFP halide indicator
The experiment in a line: CFTR conductance in FRT cells expressing wild type CFTR and YFP indicator. The settings on record: 10 μM, 5 min pretreatment; forskolin 10 μM. It counts as cell-based. How it is done:
FIG. 2A-E. Characterization of TMEM16A activators. FIG. 2A. Cytoplasmic calcium measured by Fluo-4 fluorescence. 100 μM ATP (gray line) or 10 μM of indicated TMEM16A activators were added at the arrow. FIG. 2B. Apical membrane current measured in TMEM16A-expressing FRT cells in the presence of a transepithelial chloride gradient and after basolateral membrane permeabilization. […] T16Ainh-A01 (10 μM) added where indicated. […] (right) Concentration-activation data summary (mean±S.E., n=4-6). FIG. 2C. Synergistic effect of Eact and Fact. (left and center) Representative current traces showing synergy. (right) Data summary of low doses of TMEM16A activation (mean±S.E., n=5, * P<0.05). FIG. 2D. Apical membrane current measured in FRT cells transfected with mouse TMEM16A or TMEM16B. FIG. 2E. Effect of Eact and Fact on CFTR and ENaC. (left) FRT cells expressing wild type CFTR and YFP indicator were pretreated for 5 min with 10 μM Eact and Fact. Forskolin (10 μM) added as indicated. (right) HBE cells were pre-treated for 5 min with 10 μM Eact and Fact, with amiloride (10 μM) added as indicated.

T1 sequence (P13569 whole entry): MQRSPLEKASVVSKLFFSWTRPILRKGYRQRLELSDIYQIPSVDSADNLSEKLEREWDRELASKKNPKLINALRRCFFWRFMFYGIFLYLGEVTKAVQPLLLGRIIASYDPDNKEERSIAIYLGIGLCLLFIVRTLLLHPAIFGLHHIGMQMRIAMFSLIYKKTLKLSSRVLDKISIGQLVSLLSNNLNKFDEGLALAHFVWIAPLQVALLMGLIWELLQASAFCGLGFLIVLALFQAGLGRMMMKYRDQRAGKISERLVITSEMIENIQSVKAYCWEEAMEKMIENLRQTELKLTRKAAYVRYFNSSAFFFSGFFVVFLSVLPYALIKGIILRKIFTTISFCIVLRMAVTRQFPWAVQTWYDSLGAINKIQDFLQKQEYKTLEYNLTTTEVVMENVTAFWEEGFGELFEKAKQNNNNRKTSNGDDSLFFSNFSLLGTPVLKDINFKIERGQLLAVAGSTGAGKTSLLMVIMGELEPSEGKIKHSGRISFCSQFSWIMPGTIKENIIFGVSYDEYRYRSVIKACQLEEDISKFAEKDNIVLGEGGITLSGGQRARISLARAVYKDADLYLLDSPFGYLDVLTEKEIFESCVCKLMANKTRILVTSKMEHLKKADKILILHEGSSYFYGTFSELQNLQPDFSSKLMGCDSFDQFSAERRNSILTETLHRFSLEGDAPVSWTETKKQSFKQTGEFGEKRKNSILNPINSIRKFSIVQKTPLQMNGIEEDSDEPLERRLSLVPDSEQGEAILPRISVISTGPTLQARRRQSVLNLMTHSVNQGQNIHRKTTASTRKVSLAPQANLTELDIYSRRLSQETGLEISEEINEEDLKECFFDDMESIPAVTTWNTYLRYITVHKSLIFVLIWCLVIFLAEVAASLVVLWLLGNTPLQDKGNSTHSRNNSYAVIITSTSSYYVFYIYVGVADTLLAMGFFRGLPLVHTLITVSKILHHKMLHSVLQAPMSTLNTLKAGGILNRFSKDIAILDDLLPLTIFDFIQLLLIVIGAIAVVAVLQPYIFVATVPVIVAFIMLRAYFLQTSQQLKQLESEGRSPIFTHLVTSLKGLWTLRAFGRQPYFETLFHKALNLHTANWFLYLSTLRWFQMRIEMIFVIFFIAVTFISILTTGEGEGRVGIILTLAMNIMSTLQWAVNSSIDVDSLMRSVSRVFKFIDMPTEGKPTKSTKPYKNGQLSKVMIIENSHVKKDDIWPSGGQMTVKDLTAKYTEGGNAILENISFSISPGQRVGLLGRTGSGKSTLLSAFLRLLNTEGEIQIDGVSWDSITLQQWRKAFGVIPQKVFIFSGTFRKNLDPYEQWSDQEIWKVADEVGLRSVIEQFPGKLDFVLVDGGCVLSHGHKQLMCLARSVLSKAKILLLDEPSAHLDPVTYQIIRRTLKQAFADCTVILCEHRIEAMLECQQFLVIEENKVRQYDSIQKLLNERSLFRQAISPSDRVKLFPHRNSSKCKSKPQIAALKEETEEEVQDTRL

For `CCc1c(C)nc(SCC(=O)Nc2nc(-c3ccc(OC)cc3)cs2)[nH]c1=O` [T16Ainh-A01, reference compound], the “effect of pre-treatment on gland fluid secretion” value in assay [1] was “abolished basal and agonist-stimulated gland fluid secretion”.
With `O=C(Nc1ccc(Br)cc1)c1cccc(-n2cnnn2)c1` [Fact, N-(4-bromophenyl)-3-(1H-tetrazol-1-yl)benzamide], in assay [2], the “effect on CFTR conductance” value is recorded as “Neither Eact nor Fact affected”.

The values above are taken from US9790218B2, “Small molecule activators of calcium-activated chloride channels and methods of use” (The Regents of the University of California, priority 2011, dated 2017).
